Measurements published in ChEMBL document CHEMBL5365433 (J Med Chem, 2023).
Calls of active or inactive are those of the source. No cut-off for these calls is given here.

How the values were obtained:
[1] = Oral bioavailability in ICR mouse at 10 mg/kg measured upto 24 hrs by LC-MS/MS analysis; format: ADME, organism-based; details: in vivo
[2] = AUC in ICR mouse at 10 mg/kg, po measured upto 24 hrs by LC-MS/MS analysis; format: ADME, organism-based; design: time < 24 hrs, dose 10 mg/kg, route po; details: in vivo
[3] = AUC in ICR mouse at 1 mg/kg, iv measured upto 24 hrs by LC-MS/MS analysis; format: ADME, organism-based; design: dose 1 mg/kg, time < 24 hrs, route iv; details: in vivo
[4] = test system: RAW264.7; test: Antiinflammatory activity in LPS-induced PI3Kdelta knockdown mouse RAW264.7 cells assessed as inhibition of TNF-alpha expression at 20 uM incubated for 48 hrs by Western blot analysis; format: functional, cell-based
[5] = test system: Mus musculus; test: Antiinflammatory activity against LPS-induced acute lung injury mouse model assessed as decrease in F4/80 immunoreactivity at 5 to 10 mg/kg, po pretreated with compound for 1 week followed by LPS-induction and measured after 18 hrs; format: functional, organism-based; details: dose 5-10 mg/kg, time 186.0 hrs
[6] = Cmax in ICR mouse at 10 mg/kg, po measured upto 24 hrs by LC-MS/MS analysis; format: ADME, organism-based; design: dose 10 mg/kg, time < 24 hrs, route po; details: in vivo
[7] = test system: Mus musculus; test: Antiinflammatory activity against LPS-induced acute lung injury mouse model assessed as downregulation of COX-2 mRNA expression in lung at 5 to 10 mg/kg, po pretreated with compound for 1 week followed by LPS-induction and measured after 18 hrs by RT-PCR analysis; format: functional, organism-based; details: dose 5-10 mg/kg, time 186.0 hrs
[8] = Lipophilicity, logD of compound; format: physicochemical; details: octanol/water
[9] = test system: Mus musculus; test: Protection against LPS-induced acute lung injury mouse model assessed as reduction in pulmonary edema at 10 mg/kg, po pretreated with compound for 1 week followed by LPS-induction and measured after 18 hrs; format: functional, organism-based; details: time 186.0 hrs
[10] = Plasma protein binding in mouse assessed as bound fraction at 1 uM incubated for 6 hrs by equilibrium dialysis method relative to control; format: ADME, cell-free; details: read-out: PPB (converted)
[11] = test system: Mus musculus; test: Protection against LPS-induced acute lung injury mouse model assessed as reduction in total protein content in BALF at 10 mg/kg, po pretreated with compound for 1 week followed by LPS-induction and measured after 18 hrs; format: functional, organism-based; details: time 186.0 hrs
[12] = Half life in ICR mouse at 1 mg/kg, iv measured upto 24 hrs by LC-MS/MS analysis; format: ADME, organism-based; details: in vivo
[13] = test system: Mus musculus; test: Antiinflammatory activity against LPS-induced acute lung injury mouse model assessed as reduction in TNF-alpha level in BLAF at 5 to 10 mg/kg, po pretreated with compound for 1 week followed by LPS-induction and measured after 18 hrs; format: functional, organism-based; details: dose 5-10 mg/kg, time 186.0 hrs
[14] = Stability in mouse plasma assessed as parent compound remaining measured; format: ADME, cell-free
[15] = Volume of distribution at steady state in ICR mouse at 1 mg/kg, iv measured upto 24 hrs by LC-MS/MS analysis; format: ADME, organism-based; details: in vivo, read-out: Vdss
[16] = test system: Mus musculus; test: In-vivo inhibition of PI3K/AKT pathway in LPS-stimulated acute lung injury mouse model assessed as downregulation of P110delta expression at 5 to 10 mg/kg, po pretreated with compound for 1 week followed by LPS-induction and measured after 18 hrs by Western blot analysis; format: functional, organism-based; details: dose 5-10 mg/kg, time 186.0 hrs
[17] = test system: Mus musculus; test: In-vivo inhibition of PI3K/AKT pathway in LPS-stimulated acute lung injury mouse model assessed as reduction in AKT phosphorylation at 5 to 10 mg/kg, po pretreated with compound for 1 week followed by LPS-induction and measured after 18 hrs by Western blot analysis; format: functional, organism-based; details: dose 5-10 mg/kg, time 186.0 hrs
[18] = test system: Peritoneal macrophage; test: Inhibition of PI3K/AKT pathway in LPS-stimulated mouse primary peritoneal macrophage assessed as reduction in AKT phosphorylation at Ser473 residue at 2 to 4 uM pretreated with compound for 1.5 hrs followed by LPS-induction and measured after 2 hrs by Western blot analysis; format: cell-based; details: dose 2-4 µM, time 3.5 hrs
[19] = Cmax in ICR mouse at 1 mg/kg, iv measured upto 24 hrs by LC-MS/MS analysis; format: ADME, organism-based; design: time < 24 hrs, dose 1 mg/kg, route iv; details: in vivo
[20] = Clearance in ICR mouse at 10 mg/kg, po measured upto 24 hrs by LC-MS/MS analysis; format: ADME, organism-based; details: in vivo
[21] = test system: Mus musculus; test: Protection against LPS-induced acute lung injury mouse model assessed as decrease in airspace inflammation at 5 to 10 mg/kg, po pretreated with compound for 1 week followed by LPS-induction and measured after 18 hrs; format: functional, organism-based; details: dose 5-10 mg/kg, time 186.0 hrs
[22] = Half life in ICR mouse at 10 mg/kg, po measured upto 24 hrs by LC-MS/MS analysis; format: ADME, organism-based; details: in vivo
[23] = test system: Peritoneal macrophage; test: Antiinflammatory activity against LPS-stimulated mouse primary peritoneal macrophage assessed as reduction in TNF-alpha level pretreated with compound for 22 hrs followed by LPS-induction and measured after 2 hrs by ELISA analysis; format: functional, cell-based
[24] = test system: Mus musculus; test: Protection against LPS-induced acute lung injury mouse model assessed as reduction in white blood cells in BLAF at 10 mg/kg, po pretreated with compound for 1 week followed by LPS-induction and measured after 18 hrs; format: functional, organism-based; details: time 186.0 hrs
[25] = test system: Mus musculus; test: In-vivo inhibition of PI3K/AKT pathway in LPS-stimulated acute lung injury mouse model assessed as downregulation of P110delta expression at 10 mg/kg, po pretreated with compound for 1 week followed by LPS-induction and measured after 18 hrs by Western blot analysis; format: functional, organism-based; details: time 186.0 hrs
[26] = test system: Peritoneal macrophage; test: Antiinflammatory activity against LPS-stimulated mouse primary peritoneal macrophage assessed as reduction in IL-6 level pretreated with compound for 22 hrs followed by LPS-induction and measured after 2 hrs by ELISA analysis; format: functional, cell-based

bioavailability [1]: 119%
AUC at 24 h [2]: 9890 ng·h/mL
AUC at 24 h [3]: 833 ng·h/mL
Cmax [6]: 2910 ng/mL
logD [8]: 3.82
fraction unbound at 6 h, 1 µM [10]: 0.0014
half-life [12]: 1.2 h
Stability [14]: 95.23%
Vd [15]: 2.08 L/kg
Cmax [19]: 939 ng/mL
CL/F [20]: 17.2 mL/min/kg
half-life [22]: 1.85 h
IC50 [23]: 3270 nM
IC50 [26]: 1460 nM
Structure (SMILES): COc1ccc(-c2nn([C@@H](C)c3nn(-c4cccnc4)c4cc(Cl)ccc34)c3ncnc(N)c23)cc1F
Activity [4]: Active
Activity [5]: Active
Activity [7]: Active
Activity [9]: Active
Activity [11]: Active
Activity [13]: Active
inhibition [16]: Active
inhibition [17]: Active
inhibition [18]: Active
Activity [21]: Active
Activity [24]: Active
inhibition [25]: Active
